biological target: MCH receptor (Homo sapiens, UniProt Q99705); test: High throughput functional screening FLIPR/FDSS6000: inhibition of MCH-evoked intracellular Ca2+ changes; assay type: cell-based; settings: class by percent of control at 10^-7 M or IC50
How it was run: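 In a kinetic calcium-flux format, compounds were tested at various concentrations against 50 nM MCH. Fluo4-loaded cells expressing a constitutively active, non-endogenous receptor were imaged at 488/530 nm for 290 s after agonist addition.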

Row | Structure (SMILES) | class
1 | COc1cc([N+](=O)[O-])ccc1NC(=S)N[C@H]1CC[C@@H](Nc2nc(N(C)C)c3ccccc3n2)CC1 [compound 220, N-(cis-4-{[4-(dimethylamino)quinazolin-2-yl]amino}cyclohexyl)-N′-(2-methoxy-4-nitrophenyl)thiourea] | 1 (Class 1: The value of percent of control at 10^−7 M was less than 40% or the value of IC50 was less than 50 nM.)
2 | CN(C)c1nc(N[C@H]2CC[C@@H](CNC(=S)Nc3cc(Cl)ccc3Cl)CC2)nc2ccccc12 [compound 592] | 3 (Class 3: The value of percent of control at 10^−7 M was more than 60% or the value of IC50 was more than 200 nM.)
3 | CN(C)c1nc(N[C@H]2CC[C@@H](NC(=S)NCC3CCCCC3)CC2)nc2ccccc12 [compound 286, N-(cyclohexylmethyl)-N′-(cis-4-{[4-(dimethylamino)quinazolin-2-yl]amino}cyclohexyl)thiourea] | 2 (Class 2: The value of percent of control at 10^−7 M was from 40% to 60% or the value of IC50 was from 50 nM to 200 nM.)
4 | CCOC(=O)c1ccccc1NC(=O)NC[C@H]1CC[C@@H](Nc2nc(N(C)C)c3ccccc3n2)CC1 [compound 491] | 3 (Class 3: The value of percent of control at 10^−7 M was more than 60% or the value of IC50 was more than 200 nM.)
5 | CN(C)c1nc(N[C@H]2CC[C@@H](CNC(=S)Nc3ccc(Br)c(Cl)c3)CC2)nc2ccccc12 [compound 735] | 3 (Class 3: The value of percent of control at 10^−7 M was more than 60% or the value of IC50 was more than 200 nM.)
6 | Cc1ccccc1NC(=S)NC[C@H]1CC[C@@H](Nc2nc(N(C)C)c3ccccc3n2)CC1 [compound 622] | 3 (Class 3: The value of percent of control at 10^−7 M was more than 60% or the value of IC50 was more than 200 nM.)
7 | Cc1cccc([N+](=O)[O-])c1NC(=O)NC[C@H]1CC[C@@H](Nc2nc(N(C)C)c3ccccc3n2)CC1 [compound 509, N-[(cis-4-{[4-(dimethylamino)quinazolin-2-yl]amino}cyclohexyl)methyl]-N′-(2-methyl-6-nitrophenyl)urea] | 1 (Class 1: The value of percent of control at 10^−7 M was less than 40% or the value of IC50 was less than 50 nM.)
8 | CN(C)c1nc(N[C@H]2CC[C@@H](CNC(=S)NCC3CCCO3)CC2)nc2ccccc12 (relative stereo) [compound 620] | 2 (Class 2: The value of percent of control at 10^−7 M was from 40% to 60% or the value of IC50 was from 50 nM to 200 nM.)
9 | CCOc1ccc(NC(=S)NC[C@H]2CC[C@@H](Nc3nc(N(C)C)c4ccccc4n3)CC2)cc1 [compound 596] | 3 (Class 3: The value of percent of control at 10^−7 M was more than 60% or the value of IC50 was more than 200 nM.)
10 | CN(C)c1nc(N[C@H]2CC[C@@H](CNC(=S)Nc3ccccc3OC(F)(F)F)CC2)nc2ccccc12 [compound 631] | 2 (Class 2: The value of percent of control at 10^−7 M was from 40% to 60% or the value of IC50 was from 50 nM to 200 nM.)
11 | Cc1ccc(NC(=O)NC[C@H]2CC[C@@H](Nc3nc(N(C)C)c4ccccc4n3)CC2)c([N+](=O)[O-])c1 [compound 445, N-[(cis-4-{[4-(dimethylamino)quinazolin-2-yl]amino}cyclohexyl)methyl]-N′-(4-methyl-2-nitrophenyl)urea] | 2 (Class 2: The value of percent of control at 10^−7 M was from 40% to 60% or the value of IC50 was from 50 nM to 200 nM.)
12 | CN(C)c1nc(N[C@H]2CC[C@@H](CNC(=S)Nc3c(Cl)cccc3Cl)CC2)nc2ccccc12 [compound 595] | 2 (Class 2: The value of percent of control at 10^−7 M was from 40% to 60% or the value of IC50 was from 50 nM to 200 nM.)
13 | Cc1cc(C)cc(NC(=S)N[C@H]2CC[C@@H](Nc3nc(N(C)C)c4ccccc4n3)CC2)c1 [compound 260, N-(cis-4-{[4-(dimethylamino)quinazolin-2-yl]amino}cyclohexyl)-N′-(3,5-dimethylphenyl)thiourea] | 2 (Class 2: The value of percent of control at 10^−7 M was from 40% to 60% or the value of IC50 was from 50 nM to 200 nM.)
14 | CN(C)c1nc(N[C@H]2CC[C@@H](NC(=O)NCCc3cccs3)CC2)nc2ccccc12 [compound 337, N-(cis-4-{[4-(dimethylamino)quinazolin-2-yl]amino}cyclohexyl)-N′-[2-(2-thienyl)ethyl]urea] | 2 (Class 2: The value of percent of control at 10^−7 M was from 40% to 60% or the value of IC50 was from 50 nM to 200 nM.)
15 | CN(C)c1nc(N[C@H]2CC[C@@H](NC(=O)Nc3cccs3)CC2)nc2ccccc12 [compound 341] | 3 (Class 3: The value of percent of control at 10^−7 M was more than 60% or the value of IC50 was more than 200 nM.)
16 | CN(C)c1nc(N[C@H]2CC[C@@H](CNC(=S)NCc3ccccc3Cl)CC2)nc2ccccc12 [compound 678] | 3 (Class 3: The value of percent of control at 10^−7 M was more than 60% or the value of IC50 was more than 200 nM.)
17 | CCc1ccc(NC(=S)N[C@H]2CC[C@@H](Nc3nc(N(C)C)c4ccccc4n3)CC2)cc1 [compound 205] | 2 (Class 2: The value of percent of control at 10^−7 M was from 40% to 60% or the value of IC50 was from 50 nM to 200 nM.)
18 | COc1ccc(C)cc1NC(=O)NC[C@H]1CC[C@@H](Nc2nc(N(C)C)c3ccccc3n2)CC1 [compound 504] | 1 (Class 1: The value of percent of control at 10^−7 M was less than 40% or the value of IC50 was less than 50 nM.)
19 | CCCCc1ccc(NC(=S)N[C@H]2CC[C@@H](Nc3nc(N(C)C)c4ccccc4n3)CC2)cc1 [compound 281] | 3 (Class 3: The value of percent of control at 10^−7 M was more than 60% or the value of IC50 was more than 200 nM.)

same assay, conditions: class by percent of control at 10^-7 M or by IC50; read-out: class

Row | IC50 [nM] | Structure (SMILES)
20 | > 200 | CC(=O)c1cccc(NC(=O)N[C@H]2CC[C@@H](Nc3nc(N(C)C)c4ccccc4n3)CC2)c1 [compound 4]
21 | > 200 | CN(C)c1nc(N[C@H]2CC[C@@H](NC(=O)Nc3cc(Cl)ccc3Cl)CC2)nc2ccccc12 [compound 26]
22 | > 200 | CN(C)c1nc(N[C@H]2CC[C@@H](CNC(=O)OCC(Cl)(Cl)Cl)CC2)nc2ccccc12 [compound 885]
23 | < 50 | CCOC(=O)C(CC(C)C)NC(=O)NC1CCC(Nc2nc(N(C)C)c3ccccc3n2)CC1 (stereo not drawn) [compound 34, ethyl N-{[(cis-4-{[4-(dimethylamino)quinazolin-2-yl]amino}cyclohexyl)amino]carbonyl}lucinate]
24 | 50 to 200 | CN(C)c1nc(N[C@H]2CC[C@@H](NC(=O)Nc3cc([N+](=O)[O-])ccc3Cl)CC2)nc2ccccc12 [compound 88]
25 | 50 to 200 | CCc1ccc(NC(=O)N[C@H]2CC[C@@H](Nc3nc(N(C)C)c4ccccc4n3)CC2)cc1 [compound 31, N-(cis-4-{[4-(dimethylamino)quinazolin-2-yl]amino}cyclohexyl)-N′-(4-ethylphenyl)urea]

same assay, conditions: class by percent of control at 10^−7 M or by IC50; read-out: class

Row | IC50 [nM] | Structure (SMILES)
26 | < 50 | CN(C)c1nc(N[C@H]2CC[C@@H](C(=O)NCc3ccc(Cl)c(Cl)c3)CC2)nc2ccccc12 [Example 1156, cis-N-(3,4-dichlorobenzyl)-4-{[4-(dimethylamino)quinazolin-2-yl]amino}cyclohexanecarboxamide]
27 | < 50 | CN(C)c1nc(N[C@H]2CC[C@@H](NC(=O)c3cccnc3Oc3cccc(F)c3)CC2)nc2ccccc12 [Example 1034, N-(cis-4-{[4-(dimethylamino)quinazolin-2-yl]amino}cyclohexyl)-2-(3-fluorophenoxy)nicotinamide]
28 | 50 to 200 | CN(C)c1nc(N[C@H]2CC[C@@H](NC(=O)COc3ccc(Cl)cc3Cl)CC2)nc2ccccc12 [Example 1083, 2-(2,4-dichlorophenoxy)-N-(cis-4-{[4-(dimethylamino)quinazolin-2-yl]amino}cyclohexyl)acetamide]
